From ChEMBL document CHEMBL1201862, “PubChem BioAssay data set” (2004) come the findings set out here.

Structures are written as SMILES.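 Method: 48-hour compound exposure of cells in 96-well plates, five concentrations, linear interpolation of endpoints. GI50: concentration for 50% inhibition of growth.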 The source made the active and inactive calls. Cut-off read from the data, not from the text of the source: active = GI50 up to about 1.1 µM and inactive = higher.

Test systems include HCT-15; DU-145; SF-268; SK-MEL-2; HL-60; SK-MEL-5; 786-0; HCC 2998; SW-620; MDA-N; UACC-257; SNB-19; SK-MEL-28; ACHN; U-251; MOLT-4; M14; A549; KM12.
Assay in all cases: NCI-60 cell line screen, 48 h

With `COc1ccc(-c2cc(=O)c3c(OC)c(OC)c(OC)cc3o2)cc1`, the GI50 in the test on HCT-15 is 32.7 µM; with DU-145 it was 25.5 µM (inactive); in the test with SF-268, 31.1 µM (inactive); in the test with SK-MEL-2 it was 21.1 µM (inactive); in the test on HL-60, 11.7 µM (inactive); with SK-MEL-5, 13.2 µM (inactive). The GI50 in the test on 786-0 is 19.9 µM (inactive); in the test with HCC 2998, 16.8 µM (inactive); in the test on SW-620, 36.8 µM (inactive); in the test with MDA-N, 40.6 µM (inactive); with UACC-257, 40.8 µM (inactive); in the test with SNB-19, 45 µM (inactive). Besides, the GI50 was 45.6 µM (inactive) in the test with SK-MEL-28; 24.4 µM (inactive) in the test on ACHN; 26.3 µM (inactive) in the test with U-251; 18 µM (inactive) with MOLT-4; 54.8 µM (inactive) in the test with M14; 27.1 µM (inactive) in the test on A549.

On to `Cc1cccc(Nc2nc3ccccc3nc2NS(=O)(=O)c2ccccc2)c1`, for which the GI50 is 16 µM in the test with HCT-15; 44.3 µM (inactive) in the test with DU-145; 44.3 µM (inactive) in the test on SF-268; 14.3 µM (inactive) in the test on SK-MEL-2; 13.8 µM (inactive) in the test on HL-60; 19.4 µM (inactive) in the test with SK-MEL-5. In addition, the GI50 with 786-0 was 39.4 µM (inactive); in the test on HCC 2998 it was 0.721 µM (active); in the test on SW-620, 29.6 µM (inactive); with MDA-N, 42.9 µM (inactive); in the test on UACC-257, 26.1 µM (inactive); with SNB-19, 18.1 µM (inactive). For the same compound, the GI50 with SK-MEL-28 was 38.7 µM (inactive); in the test on ACHN it was 28.9 µM (inactive); in the test with U-251 it was 14.6 µM (inactive); with KM12, 20.3 µM (inactive); in the test with MOLT-4, 12.6 µM (inactive); in the test on M14 it was 38.3 µM (inactive). For the same compound, in the test on A549, the GI50 is 14.1 µM (inactive).

`Cc1c(-c2ccc(O)cc2)n(CCCCCCNCCOC(=O)NCCCc2ccc(N(CCCl)CCCl)cc2)c2ccc(O)cc12`: the GI50 with HCT-15 is 1.79 µM; with DU-145, 1.83 µM (inactive); in the test on SF-268 it was 1.52 µM (inactive); with SK-MEL-2, 10.6 µM (inactive); in the test on HL-60, 1.44 µM (inactive); in the test on SK-MEL-5, 1.96 µM (inactive). Moreover, the GI50 in the test on 786-0 was 1.59 µM (inactive); in the test on HCC 2998 it was 1.86 µM (inactive); in the test on SW-620 it was 2.15 µM (inactive); with MDA-N it was 1.73 µM (inactive); in the test with UACC-257 it was 1.89 µM (inactive); with SNB-19, 13.2 µM (inactive). Moreover, the GI50 in the test on SK-MEL-28 was 4.21 µM (inactive); in the test with ACHN, 3.71 µM (inactive); in the test on U-251, 3.07 µM (inactive); with KM12 it was 2.25 µM (inactive); in the test on MOLT-4, 1.17 µM (inactive); with M14 it was 1.59 µM (inactive). For the same compound, the GI50 in the test on A549 was 1.88 µM (inactive).

With `O=C1OC(c2ccccc2)=N/C1=C\c1ccc(Cl)cc1`, the GI50 was above 100 µM in the test on HCT-15; > 100 µM (inactive) in the test with DU-145; > 100 µM (inactive) with SF-268; > 100 µM (inactive) in the test with SK-MEL-2; > 100 µM (inactive) with HL-60; > 100 µM (inactive) with SK-MEL-5. The GI50 in the test on 786-0, in the test with HCC 2998, in the test with SW-620, in the test with MDA-N, in the test on UACC-257 and in the test with SNB-19 was > 100 µM (inactive) throughout. The GI50 with SK-MEL-28, in the test on ACHN, in the test with U-251, in the test on KM12, in the test on MOLT-4 and in the test with M14 was > 100 µM (inactive) in each case. In addition, the GI50 in the test with A549 was > 100 µM (inactive).

In the case of `CCCCCCCc1ccc(-c2nnc(/N=N/c3ccc(OCCCCC)cc3)s2)s1`, the GI50 with HCT-15 is above 100 µM; in the test on DU-145, > 100 µM (inactive); with SF-268, > 100 µM (inactive); in the test with SK-MEL-2 it was > 100 µM (inactive); in the test on HL-60 it was > 100 µM (inactive); in the test on SK-MEL-5, > 100 µM (inactive). The GI50 in the test on 786-0, in the test with HCC 2998, in the test on SW-620, with MDA-N, with UACC-257 and with SNB-19 was > 100 µM (inactive) throughout. Moreover, the GI50 in the test on SK-MEL-28, with ACHN, with U-251, in the test with KM12, in the test with MOLT-4 and in the test on M14 was > 100 µM (inactive) throughout. In addition, the GI50 in the test with A549 was > 100 µM (inactive).

For `O=C1N[C@H]2C(=O)c3c(Cl)sc(Cl)c3[C@H]2O1`, the GI50 with HCT-15 is 3.86 µM; in the test with DU-145 it was 11.2 µM (inactive); with SF-268 it was 4.8 µM (inactive); in the test on SK-MEL-2, 19.5 µM (inactive); in the test with HL-60, 2.18 µM (inactive); in the test on SK-MEL-5 it was 18.1 µM (inactive). Besides, the GI50 in the test on 786-0 was 14.2 µM (inactive); in the test with HCC 2998, 1.94 µM (inactive); in the test on SW-620 it was 2.18 µM (inactive); in the test on MDA-N, 5.06 µM (inactive); in the test with UACC-257, 6.7 µM (inactive); in the test with SNB-19 it was 15.2 µM (inactive). Further, the GI50 is 6.64 µM (inactive) in the test with SK-MEL-28; 7.6 µM (inactive) in the test on ACHN; 3.32 µM (inactive) in the test on U-251; 17.3 µM (inactive) in the test with KM12; 3.12 µM (inactive) with MOLT-4; 6.28 µM (inactive) in the test with M14. In the test on A549, the GI50 is 19.5 µM (inactive).

In the case of `Cc1cc(C)c2c(-c3ccccc3)cc(=O)[nH]c2c1`, the GI50 in the test on HCT-15 was above 100 µM; in the test on DU-145, > 100 µM (inactive); in the test with SF-268 it was > 100 µM (inactive); with SK-MEL-2, > 100 µM (inactive); in the test with HL-60, > 100 µM (inactive); with SK-MEL-5, > 100 µM (inactive). Besides, the GI50 in the test with 786-0, in the test with HCC 2998, in the test on SW-620, with MDA-N, in the test with UACC-257 and with SK-MEL-28 was > 100 µM (inactive) each time. In addition, the GI50 in the test on ACHN, in the test on U-251, in the test with KM12, in the test on MOLT-4, in the test on M14 and with A549 was > 100 µM (inactive) throughout.

In the case of `c1ccc(COc2ncccc2C2SCCCS2)cc1`, the GI50 with HCT-15 was above 100 µM; in the test with DU-145, > 100 µM (inactive); with SF-268, > 100 µM (inactive); with SK-MEL-2, > 100 µM (inactive); in the test on HL-60 it was > 10 µM (inactive); in the test on SK-MEL-5 it was > 100 µM (inactive). Further, the GI50 in the test on 786-0, in the test on HCC 2998, with SW-620, in the test with MDA-N, in the test with UACC-257 and in the test on SNB-19 was > 100 µM (inactive) in each case. In addition, the GI50 in the test on SK-MEL-28, with ACHN, in the test with U-251, in the test with KM12, in the test with M14 and with A549 was > 100 µM (inactive) in each case.

As to `c1cnn(C23C4C5C6C4C2C6C53)c1` (stereo not drawn), the GI50 is above 100 µM in the test on HCT-15; > 100 µM (inactive) in the test with DU-145; > 100 µM (inactive) in the test with SF-268; > 100 µM (inactive) with SK-MEL-2; > 100 µM (inactive) in the test on HL-60; > 100 µM (inactive) in the test with SK-MEL-5. Besides, the GI50 with 786-0, with HCC 2998, in the test with SW-620, with MDA-N, in the test with UACC-257 and in the test on SNB-19 was > 100 µM (inactive) throughout. For the same compound, the GI50 with SK-MEL-28, with ACHN, with U-251, with KM12, in the test on MOLT-4 and in the test with A549 was > 100 µM (inactive) in each case.

As to `CNc1cc2oc(=O)cc(C)c2cc1C`, the GI50 was above 100 µM in the test with HCT-15; > 100 µM (inactive) in the test with DU-145; > 100 µM (inactive) in the test on SF-268; > 100 µM (inactive) with SK-MEL-2; 25.4 µM (inactive) in the test on HL-60; 30.1 µM (inactive) with SK-MEL-5. Also, the GI50 with 786-0, with HCC 2998, with SW-620, in the test with MDA-N, with UACC-257 and in the test on SNB-19 was > 100 µM (inactive) throughout. Further, the GI50 in the test on SK-MEL-28, with ACHN, in the test on U-251, in the test with MOLT-4, with M14 and in the test on A549 was > 100 µM (inactive) each time.

On to `NNC(=O)C(O)C(O)C(O)CO` (stereo not drawn), for which the GI50 in the test on HCT-15 was above 100 µM; in the test on DU-145, > 100 µM (inactive); in the test with SF-268, > 100 µM (inactive); in the test with SK-MEL-2 it was > 100 µM (inactive); with HL-60, > 100 µM (inactive); with SK-MEL-5 it was > 100 µM (inactive). For the same compound, the GI50 with 786-0, in the test on HCC 2998, with SW-620, in the test with MDA-N, in the test with UACC-257 and in the test with SNB-19 was > 100 µM (inactive) each time. For the same compound, the GI50 with SK-MEL-28, in the test with ACHN, with U-251, in the test with KM12, with M14 and with A549 was > 100 µM (inactive) throughout.
